Here are results for three compounds from patent US20190284168A1, “PYRAZOLE DERIVATIES AS SGC STIMULATORS” (IRONWOOD PHARMACEUTICALS, INC., priority 2014, published 2019).

One experiment deals with obese mice. To be noted: cited from earlier work.
The next experiment deals with NO-defficient rats. The note with it: NO-deficient rats; cited from earlier work.
A further experiment has as its system Sprague-Dawley Rats. The experiment can be described thus: Blood pressure change in Sprague-Dawley rats. Format: in vivo, rat. To be noted: 10 mpk PO, conscious Sprague-Dawley rats. The procedure: Male rats (250-350 g body weight, supplied by Harlan Laboratories) were anesthetized with ketamine/xylazine and a heparinized saline fluid filled catheter implanted into the right femoral artery. The catheter was exteriorized between the scapula, capped, and the animal allowed to recover for at least 7 days post surgery prior to any compound testing. Prior to testing animals were maintained on normal diet, with free access to drinking water, under a 12 hour light-dark cycle.
On the day of experimentation, under inhaled isoflurane anesthesia, the catheter was uncapped and connected to a tether (Instech Labs) and pressure transducer (Harvard Apparatus). Blood pressure and heart rate were subsequently captured and analyzed with a dedicated data capture system (PowerLab, ADInstruments). Data sampling rates were set at 1 cycle per second. Once connected, each rat was allowed to recover from anesthesia and baseline blood pressure and heart rate levels were established in these conscious, freely-moving animals. Once baseline was established either vehicle (0.5% methylcellulose or 100% PEG400) or test article was administered orally (PO, 10 mg/kg) and the effects on blood pressure and heart rate monitored for up to 24 hours.
Data are reported as hourly averages and changes in blood pressure are calculated from subtracting individual baseline on an hourly basis (Table 4)

The target in experiment [1] is T1, soluble guanylate cyclase (sGC) (Homo sapiens, UniProt Q02108+Q02153).
T1 construct: endogenously expressing soluble guanylate cyclase (sGC); endogenous in cells; host or cells: HEK293
T1 sequence (Q02153 1-619): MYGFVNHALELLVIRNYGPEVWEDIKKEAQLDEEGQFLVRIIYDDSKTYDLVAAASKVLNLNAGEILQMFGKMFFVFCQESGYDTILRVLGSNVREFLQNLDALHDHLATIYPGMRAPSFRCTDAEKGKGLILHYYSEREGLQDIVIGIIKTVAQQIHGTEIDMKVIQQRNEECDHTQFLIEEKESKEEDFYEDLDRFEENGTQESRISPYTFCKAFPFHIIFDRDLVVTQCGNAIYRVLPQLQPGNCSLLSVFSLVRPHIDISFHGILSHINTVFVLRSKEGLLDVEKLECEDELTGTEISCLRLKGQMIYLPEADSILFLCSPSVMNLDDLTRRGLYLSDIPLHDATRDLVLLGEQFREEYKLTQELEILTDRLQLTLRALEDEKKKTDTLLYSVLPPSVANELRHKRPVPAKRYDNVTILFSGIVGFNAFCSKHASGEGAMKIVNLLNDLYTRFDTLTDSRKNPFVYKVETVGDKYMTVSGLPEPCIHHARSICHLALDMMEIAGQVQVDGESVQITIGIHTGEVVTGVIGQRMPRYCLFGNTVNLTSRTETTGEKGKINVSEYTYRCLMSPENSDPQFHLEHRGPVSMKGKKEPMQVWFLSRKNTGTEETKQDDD
T1 sequence (Q02108 1-690): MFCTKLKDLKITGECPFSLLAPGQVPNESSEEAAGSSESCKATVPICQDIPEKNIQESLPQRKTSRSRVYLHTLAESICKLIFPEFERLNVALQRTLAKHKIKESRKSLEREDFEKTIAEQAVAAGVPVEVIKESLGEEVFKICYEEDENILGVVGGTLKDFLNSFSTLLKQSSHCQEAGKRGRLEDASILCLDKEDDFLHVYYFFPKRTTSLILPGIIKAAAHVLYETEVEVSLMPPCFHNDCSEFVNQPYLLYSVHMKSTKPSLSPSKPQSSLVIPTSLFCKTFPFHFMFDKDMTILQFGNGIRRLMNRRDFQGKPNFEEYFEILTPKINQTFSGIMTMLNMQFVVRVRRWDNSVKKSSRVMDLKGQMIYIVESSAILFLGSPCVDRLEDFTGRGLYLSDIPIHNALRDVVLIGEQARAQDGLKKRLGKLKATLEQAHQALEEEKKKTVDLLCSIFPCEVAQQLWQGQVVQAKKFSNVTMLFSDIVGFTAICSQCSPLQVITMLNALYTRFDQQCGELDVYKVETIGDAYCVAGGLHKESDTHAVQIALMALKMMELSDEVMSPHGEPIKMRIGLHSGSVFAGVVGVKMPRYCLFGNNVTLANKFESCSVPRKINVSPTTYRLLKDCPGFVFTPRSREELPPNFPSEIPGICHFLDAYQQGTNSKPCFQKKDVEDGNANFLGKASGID
In words: sGC-HEK-cGMP assay with LC/MS detection. The note with it: HEK293 whole cells, LC/MS detection of cGMP, 10 μM DETA-NONOate; 50% of high control response (30 μM Compound Y); read-out: Absolute EC50 (nM)- binned (~). Format: cell-based.

For orientation: EC50 means the midpoint of the concentration-response curve.

Regarding `O=C(O)CCCCN(CCc1cc(F)ccc1OCc1ccc(-c2ccc(C(F)(F)F)cc2)cc1)Cc1ccc(C(=O)O)cc1` [BAY 60-2770], the overactive bladder entry in the experiment with obese mice is listed as “ameliorates overactive bladder”.

Turning to `Nc1nc(-c2nn(Cc3ccccc3F)c3ncccc23)ncc1C1CC1` [BAY-2272], the bladder dysfunction result in the experiment on NO-defficient rats is reported as “protective effects”.

As to `Fc1cnc(-c2cc(-c3ccon3)n(Cc3ccccc3F)n2)nc1` [Compound 109], in the experiment on Sprague-Dawley Rats, the “Rat Mean Arterial Pressure peak change from baseline (at 3 or 10 mpk@)” value is “B (B = −20 ≤ peak change from baseline at 3 or 10 mpk ≤ −10)”. Moreover, in experiment [1], the EC50 was in the range of 100 to 1000 nM.
